# Measurements from US8916702B2 (priority 2012, dated 2014).
# Test system: HCV pseudoparticles (genotype 1a HCV E1 and E2 envelope, H77C isolate)
# Assay: microbe, parasite or virus in culture
# Type: cell-based
# Details: Hepatitis C virus, Huh-7, 48 h, HCV pseudoparticle infection of Huh7 cells, luciferase 2 days after infection; average of duplicates
row,Structure (SMILES),EC50
1,"CN(C)C(=O)C(=O)NC[C@H](NC(=O)c1ccc(Nc2nc(NC3(c4ccc(Cl)cc4)CC3)nc(OCC(F)(F)F)n2)cc1)C(=O)OCCN1CCOCC1 [Compound 1022, (S)-2-morpholinoethyl 2-(4-(4-(1-(4-chlorophenyl)cyclopropylamino)-6-(2,2,2-trifluoroethoxy)-1,3,5-triazin-2-ylamino)benzamido)-3-(2-(dimethylamino)-2-oxoacetamido)propanoate]",7110 pM
2,COC(=O)[C@H](CNC(=O)C(=O)NCC1CCCN(C(=O)OC(C)(C)C)C1)NC(=O)c1ccc(Nc2nc(NC3(c4ccc(Cl)cc4)CC3)nc(OCC(F)(F)F)n2)cc1 (some centres unmarked) [Compound 1452],1830 pM

# Same assay, conditions: Hepatitis C virus, Huh-7, 48 h, HCV pseudoparticles (genotype 1a, H77C) in Huh7 cells; average of duplicate; luciferase 2 days after infection
row,Structure (SMILES),EC50
1,CC(C)(CNC(=O)C(=O)Nc1ccccc1C(=O)c1ccccc1)CNC(=O)c1ccc(Nc2nc(NC3(c4ccc(Cl)cc4)CC3)nc(OCC(F)(F)F)n2)cc1 [Compound 3141],110 pM
2,CC(C)(CNC(=O)C(=O)Nc1ccc(C(=O)c2ccc(NC(=O)CCCCCNC(=O)CCCC[C@H]3SC[C@@H]4NC(=O)N[C@@H]43)cc2)cc1)CNC(=O)c1ccc(Nc2nc(NC3(c4ccc(Cl)cc4)CC3)nc(OCC(F)(F)F)n2)cc1 [Compound 3558],260 pM
3,CC(C)(CNC(=O)C(=O)Nc1ccc(OC(F)F)cc1)CNC(=O)c1ccc(Nc2nc(NC3(c4ccc(Cl)cc4)CC3)nc(OCC(F)(F)F)n2)cc1F [Compound 3562],18 pM
4,COC(=O)[C@H](CNC(=O)C(=O)Nc1ccc(-n2cnnn2)cc1)NC(=O)c1ccc(Nc2nc(NC3(c4ccc(Cl)cc4)CC3)nc(OCC(F)(F)F)n2)cc1 [Compound 3191],820 pM

# Same assay, conditions: Hepatitis C virus, Huh-7, 48 h, read-out: Activity (EC50 class), HCV pseudoparticle infection of Huh7 cells, luciferase 2 days after infection; EC50 expressed as class A/B
row,Structure (SMILES),EC50
1,"CCOC(=O)[C@H](CCCNC(=O)C(N)=O)NC(=O)c1ccc(Nc2nc(NC3(c4ccc(Cl)cc4)CC3)nc(OCC(F)(F)F)n2)cc1 [Compound 1029, (S)-ethyl 5-(2-amino-2-oxoacetamido)-2-(4-(4-(1-(4-chlorophenyl)cyclopropylamino)-6-(2,2,2-trifluoroethoxy)-1,3,5-triazin-2-ylamino)benzamido)pentanoate]",10 to 10000 pM
2,COCCNC(=O)C(=O)NC[C@H](NC(=O)c1ccc(Nc2nc(NC3(c4ccc(Cl)cc4)CC3)nc(OCC(F)(F)F)n2)cc1)C(=O)O [Compound 1046],10 to 10000 pM
3,COC(=O)[C@H](CNC(=O)C(=O)N[C@H]1C[C@@H]2C[C@@H]([C@@H]1C)C2(C)C)NC(=O)c1ccc(Nc2nc(NC3(c4ccc(Cl)cc4)CC3)nc(OCC(F)(F)F)n2)cc1 [Compound 1066],10 to 10000 pM
4,COC(=O)[C@H](CNC(=O)C(=O)NCCc1ccccc1F)NC(=O)c1ccc(Nc2nc(NC3(c4ccc(Cl)cc4)CC3)nc(OCC(F)(F)F)n2)cc1 [Compound 1290],10 to 10000 pM
5,O=C(NCC[C@H](NC(=O)c1ccc(Nc2nc(NC3(c4ccc(Cl)cc4)CC3)nc(OCC(F)(F)F)n2)cc1)C(=O)O)C(=O)Nc1cc(F)ccc1F [Compound 1513],10 to 10000 pM
6,CC(C)(CNC(=O)C(=O)Nc1ccc(O)cc1)CNC(=O)c1ccc(Nc2nc(NCc3ccc(O)cc3)nc(OCC(F)(F)F)n2)cc1 [Compound 1496],10 to 10000 pM
7,CC(C)OC(=O)c1cccc(-c2ccc(NC(=O)C(=O)NCC(C)(C)CNC(=O)c3ccc(Nc4nc(NC5(c6ccc(Cl)cc6)CC5)nc(OCC(F)(F)F)n4)cc3)cc2)c1 [Compound 1491],10 to 10000 pM
8,"CN(C)C(=O)C(=O)NC[C@H](NC(=O)c1ccc(Nc2nc(NC3(c4ccc(Cl)cc4)CC3)nc(OCC(F)(F)F)n2)cc1)C(=O)OCCN1CCOCC1 [Compound 1022, (S)-2-morpholinoethyl 2-(4-(4-(1-(4-chlorophenyl)cyclopropylamino)-6-(2,2,2-trifluoroethoxy)-1,3,5-triazin-2-ylamino)benzamido)-3-(2-(dimethylamino)-2-oxoacetamido)propanoate]",10 to 10000 pM
9,O=C(NCc1ccccc1)C(=O)NC[C@H](NC(=O)c1ccc(Nc2nc(NC3(c4ccc(Cl)cc4)CC3)nc(OCC(F)(F)F)n2)cc1)C(=O)O [Compound 1164],10 to 10000 pM
10,COC(=O)[C@H](CNC(=O)C(=O)NC1CCC(C(C)(C)C)CC1)NC(=O)c1ccc(Nc2nc(NC3(c4ccc(Cl)cc4)CC3)nc(OCC(F)(F)F)n2)cc1 (some centres unmarked) [Compound 1062],10 to 10000 pM
11,Cc1ccc(C2CC2CNC(=O)C(=O)NCC[C@H](NC(=O)c2ccc(Nc3nc(NC4(c5ccc(Cl)cc5)CC4)nc(OCC(F)(F)F)n3)cc2)C(=O)O)cc1 (some centres unmarked) [Compound 1444],10 to 10000 pM
12,COC(=O)[C@H](CNC(=O)C(=O)NCC1CCCN(C(=O)OC(C)(C)C)C1)NC(=O)c1ccc(Nc2nc(NC3(c4ccc(Cl)cc4)CC3)nc(OCC(F)(F)F)n2)cc1 (some centres unmarked) [Compound 1452],10 to 10000 pM

# Same assay, conditions: Hepatitis C virus, Huh-7, 48 h, read-out: Activity (EC50 class), HCV pseudoparticles, Huh7 cells, luciferase 2 days after infection; average of duplicates
row,Structure (SMILES),EC50
1,Cn1cnnc1-c1cccc(NC(=O)C(=O)NC[C@H](NC(=O)c2ccc(Nc3nc(NC4(c5ccc(Cl)cc5)CC4)nc(OCC(F)(F)F)n3)cc2)C(=O)O)c1 [Compound 3774],10 to 10000 pM
2,O=C(NCC[C@H](NC(=O)c1ccc(Nc2nc(NC3(c4ccc(Cl)cc4)CC3)nc(OCC(F)(F)F)n2)cc1)C(=O)O)C(=O)Nc1cccc(C(=O)Nc2ccccc2)c1 [Compound 3617],10 to 10000 pM
3,O=C(NC[C@H](NC(=O)c1ccc(Nc2nc(NC3(c4ccc(Cl)cc4)CC3)nc(OCC(F)(F)F)n2)cc1)C(=O)Cl)C(=O)Nc1ccc(OCCN2CCCCC2)nc1 [Compound 3791],10 to 10000 pM
4,CCN(CC)CCOc1cccc(NC(=O)C(=O)NC[C@H](NC(=O)c2ccc(Nc3nc(NC4(c5ccc(Cl)cc5)CC4)nc(OCC(F)(F)F)n3)cc2)C(=O)Cl)c1 [Compound 3788],10 to 10000 pM
5,COC(=O)[C@H](CNC(=O)C(=O)Nc1ccc(Oc2ccc(C(C)(C)C)cc2)nc1)NC(=O)c1ccc(Nc2nc(NC3(c4ccc(Cl)cc4)CC3)nc(OCC(F)(F)F)n2)cc1 [Compound 3698],10 to 10000 pM
6,O=C(NC[C@H](NC(=O)c1ccc(Nc2nc(NC3(c4ccc(Cl)cc4)CC3)nc(OCC(F)(F)F)n2)cc1)C(=O)O)C(=O)Nc1cccc(Cc2ccccc2)c1 [Compound 3770],10 to 10000 pM

# Same assay, conditions: Hepatitis C virus, Huh-7, read-out: Activity (EC50 class), HCV pseudoparticles (genotype 1a, H77C) in Huh7 cells; EC50 expressed as class A/B
row,Structure (SMILES),EC50
1,COC(=O)[C@H](CCNC(=O)C(=O)Nc1ccc(N(C)c2nc(C)cc(C)n2)cc1)NC(=O)c1ccc(Nc2nc(NC3(c4ccc(Cl)cc4)CC3)nc(OCC(F)(F)F)n2)cc1 [Compound 3133],10 to 10000 pM
2,Cc1ccc(NC(=O)C(=O)NCC(C)(C)CNC(=O)c2ccc(Nc3nc(NC4(c5ccc(Cl)cc5)CC4)nc(OCC(F)(F)F)n3)cc2)c(Cl)c1 [Compound 3378],10 to 10000 pM
3,CC(C)(CNC(=O)C(=O)Nc1ccccc1C(=O)c1ccccc1)CNC(=O)c1ccc(Nc2nc(NC3(c4ccc(Cl)cc4)CC3)nc(OCC(F)(F)F)n2)cc1 [Compound 3141],10 to 10000 pM
4,CC(C)(CNC(=O)C(=O)Nc1ccccc1-c1cc2ccccc2[nH]1)CNC(=O)c1ccc(Nc2nc(NC3(c4ccc(Cl)cc4)CC3)nc(OCC(F)(F)F)n2)cc1 [Compound 3052],10 to 10000 pM
5,CC(C)(CNC(=O)C(=O)Nc1ccc(C(=O)c2ccc(NC(=O)CCCCCNC(=O)CCCC[C@H]3SC[C@@H]4NC(=O)N[C@@H]43)cc2)cc1)CNC(=O)c1ccc(Nc2nc(NC3(c4ccc(Cl)cc4)CC3)nc(OCC(F)(F)F)n2)cc1 [Compound 3558],10 to 10000 pM
6,O=C(NC[C@H](NC(=O)c1ccc(Nc2nc(NC3(c4ccc(Cl)cc4)CC3)nc(OCC(F)(F)F)n2)cc1)C(=O)O)C(=O)Nc1ccc(CC(F)(F)F)cc1 [Compound 3297],10 to 10000 pM
7,COC(=O)[C@H](CNC(=O)C(=O)Nc1ccc(OCc2ccccc2)cc1)NC(=O)c1ccc(Nc2nc(NC3(c4ccc(Cl)cc4)CC3)nc(OCC(F)(F)F)n2)cc1 [Compound 3090],10 to 10000 pM
8,CC(C)(CNC(=O)C(=O)Nc1ccc(OC(F)F)cc1)CNC(=O)c1ccc(Nc2nc(NC3(c4ccc(Cl)cc4)CC3)nc(OCC(F)(F)F)n2)cc1F [Compound 3562],10 to 10000 pM
9,COC(=O)[C@H](CNC(=O)C(=O)Nc1ccc(-n2cnnn2)cc1)NC(=O)c1ccc(Nc2nc(NC3(c4ccc(Cl)cc4)CC3)nc(OCC(F)(F)F)n2)cc1 [Compound 3191],10 to 10000 pM
10,O=C(N[C@H](CCNC(=O)c1ccc(Nc2nc(NC3(c4ccc(Cl)cc4)CC3)nc(OCC(F)(F)F)n2)cc1)C(=O)O)C(=O)N1CCCCC1 [Compound 3504],10 to 10000 pM
11,NS(=O)(=O)c1ccc(NC(=O)C(=O)NC/C(=N/C(=O)c2ccc(Nc3nc(NC4(c5ccc(Cl)cc5)CC4)nc(OCC(F)(F)F)n3)cc2)C(=O)O)cc1 [Compound 3155],10 to 10000 pM
12,CC(C)(CNC(=O)C(=O)Nc1ccc(F)c(Cl)c1)CNC(=O)c1ccc(Nc2nc(NC3(c4ccc(Cl)cc4)CC3)nc(OCC(F)(F)F)n2)cc1 [Compound 3059],10 to 10000 pM
13,COC(=O)[C@H](CCNC(=O)C(=O)Nc1ccc(CN2CCCCC2)cc1)NC(=O)c1ccc(Nc2nc(NC3(c4ccc(Cl)cc4)CC3)nc(OCC(F)(F)F)n2)cc1 [Compound 3313],10 to 10000 pM
14,COC(=O)[C@H](CNC(=O)C(=O)Nc1ccc(-c2ccno2)cc1)NC(=O)c1ccc(Nc2nc(NC3(c4ccc(Cl)cc4)CC3)nc(OCC(F)(F)F)n2)cc1 [Compound 3199],10 to 10000 pM
